According to paper PMC3165090 (Journal of medicinal chemistry, 2011):
Where a name gives a salt, the structure may show the parent alone.

Columns and labels:
lung HOP-62 = assay: NCI screen cytotoxicity, lung HOP-62; type: cell-based; settings: Homo sapiens, HOP-62, 48 h, read-out: cytotoxicity (GI50) lung HOP-62
colon HCT-116 = assay: NCI screen cytotoxicity, colon HCT-116; type: cell-based; settings: Homo sapiens, HCT-116, 48 h, read-out: cytotoxicity (GI50) colon HCT-116
melanoma UACC-62 = assay: NCI screen cytotoxicity, melanoma UACC-62; type: cell-based; settings: Homo sapiens, UACC-62, 48 h, read-out: cytotoxicity (GI50) melanoma UACC-62
renal SN12C = assay: NCI screen cytotoxicity, renal SN12C; type: cell-based; settings: Homo sapiens, 48 h, read-out: cytotoxicity (GI50) renal SN12C
prostate DU-145 = assay: NCI screen cytotoxicity, prostate DU-145; type: cell-based; settings: Homo sapiens, DU-145, 48 h, read-out: cytotoxicity (GI50) prostate DU-145
SV40 DNA = assay: DNA unwinding assay; type: biochemical; settings: for ability to unwind/intercalate into free DNA: range of tested concentrations 1-100 μM
human recombinant Top1 = target: T1, human recombinant Top1 (Homo sapiens, UniProt P11387); assay: Top1-mediated DNA cleavage assay; type: biochemical; settings: for Top1 cleavage: semiquantitative, relative Top1 inhibitory potency vs compounds 1 and 2, 117-bp DNA fragment; for concentration dependence of DNA cleavage band intensity: 0.1-100 μM, side-by-side comparison (Figure 4)
T1 sequence (P11387 1-765): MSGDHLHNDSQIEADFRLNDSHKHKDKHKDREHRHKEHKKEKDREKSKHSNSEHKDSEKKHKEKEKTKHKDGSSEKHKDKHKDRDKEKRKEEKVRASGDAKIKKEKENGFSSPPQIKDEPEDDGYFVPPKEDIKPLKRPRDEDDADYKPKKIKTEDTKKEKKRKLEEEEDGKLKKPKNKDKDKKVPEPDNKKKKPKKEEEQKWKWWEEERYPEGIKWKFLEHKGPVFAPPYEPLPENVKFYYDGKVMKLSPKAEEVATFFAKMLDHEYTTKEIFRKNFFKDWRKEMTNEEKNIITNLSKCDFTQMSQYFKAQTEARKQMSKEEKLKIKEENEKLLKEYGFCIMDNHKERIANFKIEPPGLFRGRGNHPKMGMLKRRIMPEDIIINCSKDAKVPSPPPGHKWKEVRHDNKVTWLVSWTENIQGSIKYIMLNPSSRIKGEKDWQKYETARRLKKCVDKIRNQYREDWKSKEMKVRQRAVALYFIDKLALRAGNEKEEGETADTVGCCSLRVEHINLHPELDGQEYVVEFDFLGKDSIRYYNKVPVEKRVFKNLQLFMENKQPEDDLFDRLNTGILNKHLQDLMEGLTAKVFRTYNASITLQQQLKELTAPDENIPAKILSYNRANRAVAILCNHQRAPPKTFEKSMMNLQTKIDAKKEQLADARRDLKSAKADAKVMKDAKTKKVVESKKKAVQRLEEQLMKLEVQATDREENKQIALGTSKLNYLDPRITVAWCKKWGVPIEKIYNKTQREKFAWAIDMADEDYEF

[1] = test system: all human cancer cell lines successfully tested; assay: NCI screen, mean graph midpoint; type: cell-based; settings: 48 h, read-out: cytotoxicity (GI50) MGM

SMILES	Top1 cleavage (human recombinant Top1)	GI50 [1] [nM]	further results
CC[C@@]1(O)C(=O)OCc2c1cc1n(c2=O)Cc2cc3ccccc3nc2-1 [Compound 1, camptothecin]			GI50 (lung HOP-62): 10 nM; GI50 (colon HCT-116): 30 nM; GI50 (melanoma UACC-62): 10 nM; GI50 (renal SN12C): 20 nM; GI50 (prostate DU-145): 10 nM
O=C1c2cccnc2-c2[nH]c(=O)c3cc([N+](=O)[O-])ccc3c21 [Compound 17, 7-Aza-5,6-dihydro-3-nitro-5,11-dioxo-11H-indeno[1,2-c]isoquinoline]			ability to unwind/intercalate into free DNA (SV40 DNA): allow intercalation into DNA in the absence of Top1
CN(C)CCCn1c2c(c3ccccc3c1=O)C(=O)c1cccnc1-2 [Compound 18, 7-Aza-5,6-dihydro-6-(3-dimethylaminopropyl)-5,11-dioxo-11H-indeno[1,2-c]isoquinoline Hydrochloride]	+++	1780	
COc1cc2c3c(n(CCCN(C)C)c(=O)c2cc1OC)-c1ncccc1C3=O [Compound 19, 7-Aza-5,6-dihydro-6-(3-dimethylaminopropyl)-2,3-dimethoxy-5,11-dioxo-11H-indeno[1,2-c]isoquinoline Hydrochloride]	+++	4500	inhibition of Top1-mediated DNA relaxation (SV40 DNA; at highest tested concentration, 100 μM): completely inhibits the Top1-mediated DNA relaxation
CN(C)CCCn1c2c(c3ccc([N+](=O)[O-])cc3c1=O)C(=O)c1cccnc1-2 [Compound 20, 7-Aza-5,6-dihydro-6-(3-dimethylaminopropyl)-3-nitro-5,11-dioxo-11H-indeno[1,2-c]isoquinoline Hydrochloride]		1860	
O=C1c2cccnc2-c2c1c1ccccc1c(=O)n2CCCN1CCOCC1 [Compound 21, 7-Aza-5,6-dihydro-6-(3-morpholinopropyl)-5,11-dioxo-11H-indeno[1,2-c]isoquinoline Hydrochloride]		15500	
COc1cc2c3c(n(CCCN4CCOCC4)c(=O)c2cc1OC)-c1ncccc1C3=O [Compound 22, 7-Aza-5,6-dihydro-6-(3-morpholinopropyl)-2,3-dimethoxy-5,11-dioxo-11H-indeno[1,2-c]isoquinoline Hydrochloride]	++		concentration dependence of DNA cleavage band intensity (human recombinant Top1): concentration-dependent increase of intensity of DNA cleavage bands; ability to unwind/intercalate into free DNA (SV40 DNA): inability to unwind/intercalate into DNA
O=C1c2cccnc2-c2c1c1ccc([N+](=O)[O-])cc1c(=O)n2CCCN1CCOCC1 [Compound 23, 7-Aza-5,6-dihydro-6-(3-morpholinopropyl)-3-nitro-5,11-dioxo-11H-indeno[1,2-c]isoquinoline Hydrochloride]	+++		
O=C1c2cccnc2-c2c1c1ccccc1c(=O)n2CCCn1ccnc1 [Compound 28, 7-Aza-5,6-dihydro-6-(3-(1H-imidazol-1-yl)propyl)-5,11-dioxo-11H-indeno[1,2-c]isoquinoline]	++		
COc1cc2c3c(n(CCCn4ccnc4)c(=O)c2cc1OC)-c1ncccc1C3=O [Compound 29, 7-Aza-5,6-dihydro-6-(3-(1H-imidazol-1-yl)propyl)-2,3-dimethoxy-5,11-dioxo-11H-indeno[1,2-c]isoquinoline]	++		concentration dependence of DNA cleavage band intensity (human recombinant Top1): concentration-dependent increase of intensity of DNA cleavage bands
O=C1c2cccnc2-c2c1c1ccccc1c(=O)n2CCCNCCO [Compound 30, 7-Aza-5,6-dihydro-6-(3-(2-hydroxyethylamino)propyl)-5,11-dioxo-11H-indeno[1,2-c]isoquinoline Hydrochloride]	+	1290	
COc1cc2c3c(n(CCCNCCO)c(=O)c2cc1OC)-c1ncccc1C3=O [Compound 31, 7-Aza-5,6-dihydro-6-(3-(2-hydroxyethylamino)propyl)-2,3-dimethoxy-5,11-dioxo-11H-indeno[1,2-c]isoquinoline Hydrochloride]		290	concentration dependence of DNA cleavage band intensity (human recombinant Top1): behave similarly to 19
COc1cc2c3c(n(CCCN)c(=O)c2cc1OC)-c1ncccc1C3=O [Compound 32, 7-Aza-5,6-dihydro-6-(3-aminopropyl)-2,3-dimethoxy-5,11-dioxo-11H-indeno[1,2-c]isoquinoline Hydrochloride]		2090	concentration dependence of DNA cleavage band intensity (human recombinant Top1): behave similarly to 19
CN(C)CCCn1c2c(c3ccccc3c1=O)C(=O)c1ccccc1-2 [Compound 33, reference compound]	+++		
CN(C)CCCn1c2c(c3ccc([N+](=O)[O-])cc3c1=O)C(=O)c1ccccc1-2 [Compound 35]	+++	9770	GI50 (colon HCT-116): 6460 nM; GI50 (melanoma UACC-62): 7080 nM; GI50 (renal SN12C): 4170 nM
